“And” between values parts separate entries of the source, which are not always exact repeats. Identical values can stand only once. Square brackets hold non-standard residues; d marks the D form. Peptide text beside a SMILES is read from it.
Legend:
[1] = system: primary bone marrow-derived macrophages (BMDMs) from C57BL/6 mice; assay: qPCR of Ifnb1/Cxcl10 mRNA in BMDMs (ISD or HSV-1); assay type: cell-based, mouse
Description: (§1) The indicated cells were stimulated with either ISD (Sangon Biotech), HSV-1 (Provided by Dr. Zhengfan Jiang), HSV60mer (Sangon Biotech), SATE-cddA[70], 2’3’-cGAMP (Invivogen, Cat# tlrl-nacga23-1), ADU-S100 (MedChemExpress, Cat# HY-12885A) or Poly(I:C) (Invivogen, Cat# tlrl-pic) after XQ2 or XQ2B treatment. Total RNA was isolated from indicated cells that incubated with the drugs for indicated time or mice tissues by using NucleoZOL reagent (MACHEREY-NAGEL) according to the manufacturer’s instructions. The quantifications of mRNA levels were carried out by real-time PCR using a PerfectStart® Uni RT&qPCR Kit (TransGen Biotech) on the QuantStudio 5 qPCR machine (Applied Biosystems). Samples were carried out in triplicate and the target CT values were normalized to GAPDH CT values. Primers of qPCR used in this study can be found in Supplementary Table S2.
C57BL/6 6–8 weeks old wild type (WT) mice were purchased from Gempharmatech. C57BL/6 Trex1^+/- mice were purchased from Cyagen. Trex1^-/- mice were generated by further mating the male and female Trex1^+/- mice, and 8-week-old male Trex1^-/- mice were used in the experiment. Mice were housed in groups of up to 5 mice/cage at 18 °C − 24 °C ambient temperatures with 40–60% humidity. Mice were maintained on a 12 h light/ dark cycle 6 am to 6 pm. Food and water were available ad libitum. Femurs and tibias were removed from sex-matched mice of 6–8 weeks old, and the ends were clipped. Marrow was pushed from bones by using a syringe, and cell clumps were broken apart into cell particles by pipetting in PBS, and passed through a 70 μm cell strainer. Cells were resuspended in red blood cell lysis buffer (Solarbio) for 5 min after being centrifuged with 200 × g for 5 min, and were resuspended in cell culture media (DMEM) with an additional M-CSF (50 ng/ml) after centrifugation, and then were seeded into a 12-well plate. Half of the cell culture media was replaced with a fresh medium on the third day, and performed a complete media change on the fifth day. BMDMs were used for subsequent experiments after the seventh day. All the animal experiments in these studies were approved and overseen by the ethics committee of the Laboratory Animal Center of Peking University Shenzhen Graduate School in accordance with the Policy on the Care, Welfare, and Treatment of Laboratory Animals. The assigned approval or accreditation number is AP0020005.
Supplementary Fig. 2. […] (a, b) THP1 cells were
(§2) (c) L929, p = 0.0005 (Ifnb1),
(§3) BMDMs, p = 0.0001 (Ifnb1), p < 0.0001 (Cxcl10).
(§4) representative of three independent experiments in (a-g). (Data are presented as mean ± SD, n = 3 independent
(§5) Source data are provided as a Source Data file.

[2] = system: murine fibroblast L929 cells; assay: qPCR of Ifnb1/Cxcl10 mRNA in L929 cells (ISD or HSV-1); assay type: cell-based, mouse; parameters: key to Ifnb1 mRNA (Fig. S2c) / Cxcl10 mRNA (Fig. S2c) / Ifnb1 mRNA (Fig. S2d) / Cxcl10 mRNA (Fig. S2d): mRNA level normalized to GAPDH (relative expression)
Description: as §1, with “S2. […]” for “S2.”
as §2, §3, §4, §5

[3] = system: THP1 cells; assay: ELISA of IFN-β and CXCL10 after HSV-1 infection; assay type: cell-based, human
Description: THP1 cells were seeded into 96-well plates, and cell culture supernatants were collected and analyzed by ELISA kits for human IFNβ levels (R&D Systems, Cat# DY814-05) and human CXCL10 levels (R&D Systems, Cat# DY266-05) according to the manufacturer’s instructions. Mice serum was collected and analyzed by ELISA kits for mouse IFNβ levels (R&D Systems, Cat# DY8234-05) and mouse CXCL10 levels (R&D Systems, Cat# DY466-05) according to the manufacturer’s protocols.

[4] = Pharmacokinetics after intravenous administration; settings: C57BL/6, mouse, whole blood, 10 mg/kg

CC(C)C[C@@H]1NC(=O)[C@H](CCCNC(=N)N)NC(=O)[C@H](C(C)C)NC(=O)[C@@H]2CCCN2C(=O)[C@@H](Cc2ccccc2)NC(=O)[C@H](CC(C)C)NC(=O)[C@H](CCCNC(=N)N)NC(=O)[C@H](C(C)C)NC(=O)[C@H](C)NC(=O)[C@@H](Cc2ccccc2)NC1=O [XQ2, Cyclo (LfAVRLfPVR)] (cyclo(L[dF]AVRL[dF]PVR))
Ifnb1 and Cxcl10 expression induced by ISD and HSV-1 ([1]; 10 μM): significantly inhibited the expression of Ifnb1 and its downstream gene Cxcl10
Cxcl10 mRNA (Fig. S2d) ([1]; HSV-1+XQ2): 143.811 and 140.79 and 131.38
Ifnb1 mRNA (Fig. S2d) ([1]; HSV-1+XQ2): 30.4765 and 34.353 and 35.6259
Cxcl10 mRNA (Fig. S2c) ([1]; ISD+XQ2): 62.8779 and 59.0359 and 62.3708
Ifnb1 mRNA (Fig. S2c) ([1]; ISD+XQ2): 709.298 and 846.919 and 741.167
Cxcl10 mRNA (Fig. S2c) ([1]; XQ2 alone): 1.406 and 1.738 and 1.597
Cxcl10 mRNA (Fig. S2d) ([1]; XQ2 alone): 1.406 and 1.738 and 1.597
Ifnb1 mRNA (Fig. S2c) ([1]; XQ2 alone): 0.9266 and 0.5519 and 1.072
Ifnb1 mRNA (Fig. S2d) ([1]; XQ2 alone): 0.9266 and 0.5519 and 1.072
Ifnb1 and Cxcl10 expression induced by ISD and HSV-1 ([2]; L929, 10 μM): significantly inhibited the expression of Ifnb1 and its downstream gene Cxcl10
Cxcl10 mRNA (Fig. S2d) ([2]; L929, HSV-1+XQ2): 14.7732 and 16.7433 and 18.5165
Ifnb1 mRNA (Fig. S2d) ([2]; L929, HSV-1+XQ2): 2.433 and 2.873 and 2.57
Cxcl10 mRNA (Fig. S2c) ([2]; L929, ISD+XQ2): 490.131 and 497.538 and 429.114
Ifnb1 mRNA (Fig. S2c) ([2]; L929, ISD+XQ2): 47.632 and 43.4073 and 39.6029
Cxcl10 mRNA (Fig. S2c) ([2]; L929, XQ2 alone): 1.1537 and 1.297 and 1.725
Cxcl10 mRNA (Fig. S2d) ([2]; L929, XQ2 alone): 1.1537 and 1.297 and 1.725
Ifnb1 mRNA (Fig. S2c) ([2]; L929, XQ2 alone): 1.659 and 1.773 and 1.653
Ifnb1 mRNA (Fig. S2d) ([2]; L929, XQ2 alone): 1.659 and 1.773 and 1.653
production of IFN-β and CXCL10 upon HSV-1 infection ([3]; 10 μM): significantly inhibited the production of IFN-β and CXCL10
IFN-β protein, ELISA, Fig. 5a ([3]; HSV-1 1×10^5 pfu 24 h, XQ2 10 μM): 82.1785 and 88.212 and 94.6416
CXCL10 protein, ELISA, Fig. 5b ([3]; HSV-1 2×10^4 pfu 24 h, XQ2 10 μM): 81.286 and 72.3045 and 81.612
CXCL10 protein, ELISA, Fig. 5b ([3]; HSV-1 5×10^4 pfu 24 h, XQ2 10 μM): 1196.79 and 1171.64 and 1198.54

CC(C)C[C@@H]1NC(=O)[C@H](CCCNC(=N)N)NC(=O)[C@H](C(C)C)NC(=O)[C@@H]2CCCN2C(=O)[C@@H](Cc2ccccc2)NC(=O)[C@H](CC(C)C)NC(=O)[C@H](CCCNC(=N)N)NC(=O)[C@H]([C@@H](C)O)NC(=O)[C@H](C)NC(=O)[C@@H](Cc2ccccc2)NC1=O [XQ2B] (cyclo([dF]ATRL[dF]PVRL))
AUC(0-inf) [4]: 157 µg·h/mL
AUC(0-t) [4]: 135 µg·h/mL
Cmax [4]: 105 µg/mL
MRT last [4]: 72 min
Tmax [4]: 4.98 min
Vd [4]: 0.095 L/kg
clearance [4]: 0.071 L/h/kg

— publication PMC10545747, “Development of cyclopeptide inhibitors of cGAS targeting protein-DNA interaction and phase separation” (Nature Communications, 2023)
